# Assay results taken from ChEMBL document CHEMBL3227930, “Some 11-substituted tetrahydrocannabinols. Synthesis and comparison with the potent cannabinoid metabolites 11-hydroxytetrahydrocannabinols” (1979).
# Activity calls are given as the source filed them. The calls are words filed in the database; no cut-off is given here.
# Experiments:
# [1] = system: Mus musculus; experiment: Analgesic activity in sc dosed mouse by hot-plate method; format: functional
# [2] = system: Mus musculus; experiment: Analgesic activity in mouse at 20 mg/kg, sc by hot-plate method; format: functional, organism-based; parameters: dose 20 mg/kg
# [3] = system: Canis familiaris; experiment: Induction of overt behavior in dog at 2 mg/kg, iv; format: functional, organism-based; parameters: dose 2 mg/kg; conditions: Canis lupus familiaris
# [4] = system: Canis familiaris; experiment: Induction of overt behavior in dog at 4 mg/kg, iv; format: functional, organism-based; parameters: dose 4 mg/kg; conditions: Canis lupus familiaris
# [5] = system: Canis familiaris; experiment: Induction of overt behavior in dog at 0.50 mg/kg, iv; format: functional, organism-based; parameters: dose 0.5 mg/kg; conditions: Canis lupus familiaris
# [6] = system: Canis familiaris; experiment: Induction of overt behavior in dog at 1 mg/kg, iv; format: functional, organism-based; parameters: dose 1 mg/kg; conditions: Canis lupus familiaris
# [7] = system: Canis familiaris; experiment: Induction of overt behavior in dog at 0.20 mg/kg, iv; format: functional, organism-based; parameters: dose 0.2 mg/kg; conditions: Canis lupus familiaris
# [8] = system: Canis familiaris; experiment: Induction of overt behavior in dog at 0.40 mg/kg, iv; format: functional, organism-based; parameters: dose 0.4 mg/kg; conditions: Canis lupus familiaris
# [9] = system: Canis familiaris; experiment: Induction of overt behavior in dog at 0.80 mg/kg, iv; format: functional, organism-based; parameters: dose 0.8 mg/kg; conditions: Canis lupus familiaris
# [10] = system: Canis familiaris; experiment: Induction of overt behavior in dog at 3 mg/kg, iv; format: functional, organism-based; parameters: dose 3 mg/kg; conditions: Canis lupus familiaris
# [11] = system: Mus musculus; experiment: Analgesic activity in mouse at 50 mg/kg, sc by hot-plate method; format: functional, organism-based; parameters: dose 50 mg/kg
# [12] = system: Canis familiaris; experiment: Induction of overt behavior in dog at 0.10 mg/kg, iv; format: functional, organism-based; parameters: dose 0.1 mg/kg; conditions: Canis lupus familiaris
# [13] = system: Canis familiaris; experiment: Induction of overt behavior in dog at 0.01 mg/kg, iv; format: functional, organism-based; parameters: dose 0.01 mg/kg; conditions: Canis lupus familiaris
# [14] = system: Canis familiaris; experiment: Induction of overt behavior in dog at 0.05 mg/kg, iv; format: functional, organism-based; parameters: dose 0.05 mg/kg; conditions: Canis lupus familiaris
smiles,measurement,setting,value
COc1ccc2c3c1O[C@H]1[C@@H](O)C=C[C@H]4[C@@H](C2)N(C)CC[C@@]341.Cl,ED50,[1],7.5 mg/kg
CCCCCc1cc(O)c2c(c1)OC(C)(C)[C@@H]1CC=C(CNC(C)=O)C[C@@H]21,Activity,[2],inactive
CCCCCc1cc(O)c2c(c1)OC(C)(C)[C@@H]1CC/C(=N/O)C[C@@H]21,Activity,[2],inactive
CCCCCc1cc(O)c2c(c1)OC(C)(C)[C@@H]1CC=C(COC)C[C@@H]21,Activity,[3],Active
same,Activity,[4],Active
same,ED50,[1],8.2 mg/kg
CCCCCc1cc(O)c2c(c1)OC(C)(C)[C@@H]1CC=C(CN)C[C@@H]21,Activity,[5],inactive
same,Activity,[6],inactive
same,Activity,[3],Active
same,Activity,[2],inactive
CCCCCc1cc(O)c2c(c1)OC(C)(C)[C@@H]1CC=C(CC)CC21 (mixture of isomers),Activity,[7],inactive
same,Activity,[8],inactive
same,Activity,[9],Active
same,Activity,[6],Active
same,Activity,[3],Active
same,Activity,[10],Active
same,Activity,[11],inactive
CN1CC[C@]23c4c5ccc(O)c4O[C@H]2[C@@H](O)C=C[C@H]3[C@H]1C5.Cl [MORPHINE HYDROCHLORIDE],ED50,[1],1.2 mg/kg
CCCCCc1cc(O)c2c(c1)OC(C)(C)[C@@H]1CC=C(C)C[C@@H]21 [DELTA-8-TETRAHYDROCANNABINOL],Activity,[12],inactive
same,Activity,[7],inactive
same,Activity,[8],Active
same,ED50,[1],8.8 mg/kg
CCCCCc1cc(O)c2c(c1)OC(C)(C)[C@@H]1CCC(CO)=C[C@@H]21,Activity,[13],Active
same,Activity,[14],Active
same,Activity,[12],Active
same,ED50,[1],1.9 mg/kg
